The values below come from patent US20100137239A1, “GEMCITABINE COMBINATION THERAPY” (GLOUCESTER PHARMACEUTICALS, priority 2006, published 2010).

“And” between values parts separate entries of the source, which are not always exact repeats. Equal values may be shown once. “Also recorded” adds a separate entry of the source.

Experiment [1] concerns BxPC-3 Human Pancreatic Tumor Xenograft. As to the kind of experiment: BxPC-3 xenograft tumor growth inhibition study (Example 3). It counts as in vivo, mouse xenograft. Particulars: for % TGI: BxPC-3, Day 29; for activity according to NCI Standards / #PR/CR / FINAL TUMOR VOLUME (DAY 29) MEAN ± SEM / calculated TGI values (discussion): BxPC-3; for calculated TGI values (discussion): all evaluated doses and schedules. From the text:
(Madison, Wis.). […] Tumor measurements were converted to cubic millimeter tumor volume using the formula^(5): […] Final mean tumor volume ±SEM for each group was reported; animals experiencing partial or complete tumor regressions or animals experiencing technical or drug-related deaths were censored from these calculations. […] TGI values for each treatment group are reported at study completion; these calculations are based on the final study day. […] If partial tumor regression was reported in multiple animals within one group, a mean value was determined. Individual mice lacking palpable tumors were classified as undergoing complete regression (CR). Animals experiencing partial or complete tumor regressions were censored from TGI calculations. However, data from these animals was included in statistical analysis calculations. In addition, weight data from these animals was included in daily and final group calculations. Tumor Necrosis-Degree of tumor necrosis was rated at each tumor measurement using the following arbitrary index: [table]

Experiment [2] concerns NIH-3T3 cells transformed by H, K, N-Ras and the rat Her-2/NeuT. As to the kind of experiment: 4-day proliferation assay, transformed NIH-3T3 cell lines. It counts as cell-based, mouse. Particulars: 2 nM romidepsin. The procedure:
(§1) A series of transformed NIH-3T3 cell likes were generated and a proliferation assay was performed in the presence of 2, 3, or 4 nM romidepsin. FIG. 23 illustrates the transformed morphology of the cells. FIG. 24 presents graphs of cell proliferation.

The next experiment has as its system B-Raf 600E cells. The experiment is described as follows: 4-day proliferation assay, B-Raf 600E NIH-3T3 cells. The class given is cell-based, mouse. Particulars: 2, 3, or 4 nM romidepsin. The procedure: as §1
The next experiment concerns p21^waf. As to the kind of experiment: Immunoblot of p21^waf in PANC-1 xenograft tumors. The class given is in vivo, human. Particulars: FK228 5 mg/kg Q4Dx3; gemcitabine 80 mg/kg Q3Dx4; tumors at study completion; vs controls. Here is the method:
Abstract: To examine activity and mechanism of FK228, antitumor efficacy was tested in PANC-1 pancreatic adenocarcinoma model representing transformed Ras, either as a single agent or in combination with gemcitabine. Following PANC-1 study completion, tumor and sera were obtained from: • the vehicle control; • FK228 dosed at 5 mg/kg once every four days for three treatments (Q4Dx3); • Gemcitabine at 80 mg/kg (Q3Dx4); and • the drug combination. Expression of c-Myc, acetylated histones 3 and 4, and p21^waf1 was compared between control and FK228 groups by immunoblotting and was quantified following actin normalization. Serum levels of putative tumor products b-FGF and MMP-2 were quantified by human-specific ELISA. […]
Tissue Biomarkers: Tumor levels of acetylated histone-4, histone-4, c-Myc, p21waf and β-actin were quantified by immunoblotting as described. […] The chemiluminescence signal was captured by autoradiography, quantified by densitometry and expressed as a ratio of actin in each sample lane. For each biomarker, means and standard errors were calculated in each treatment group. […]
Expression of c-Myc, acetylated histones 3 and 4, and p21^waf1 was compared between control and FK228 groups by immunoblotting and was quantified following actin normalization. Serum levels of putative tumor products b-FGF and MMP-2 were quantified by human-specific ELISA. […]
On the technique in general: A western blot detects proteins with antibodies after separation by electrophoresis.

Setting [3] is: FK228 2.5 mg/kg IV Q4Dx3, 2.5 mg/kg.
Setting [4] is: FK228 5 mg/kg IV Q4Dx3, 5 mg/kg.

On to `C/C=C1\NC(=O)[C@H]2CSSCC/C=C/[C@H](CC(=O)N[C@H](C(C)C)C(=O)N2)OC(=O)[C@H](C(C)C)NC1=O` [FK228, romidepsin], for which, in experiment [1] (FK228 2.5 mg/kg IV Q4Dx3), the “% TGI” value was “No TGI” and the “activity according to NCI Standards” value is “inactive”. Moreover, in experiment [1] (FK228 5 mg/kg IV Q4Dx3), the “% TGI” value is “No TGI” and the “activity according to NCI Standards” value was “inactive”. For the same compound, in experiment [1] (setting [3]), the “#PR/CR” value is 0/9 and 0/0; the “FINAL TUMOR VOLUME (DAY 29) MEAN ± SEM” value was 2440±643 mm^3. Besides, in experiment [1] (setting [4]), the “#PR/CR” value is 0/9 and 0/0; the “FINAL TUMOR VOLUME (DAY 29) MEAN ± SEM” value worked out at 2620±238 mm^3. For the same compound, the “calculated TGI values (discussion)” value in experiment [1] was “No tumor growth inhibition”. The “single agent activity towards tumor model” value in experiment [1] (wildtype ras BxPC-3) was “inactive”. For the same compound, in experiment [2], the “proliferation of transformed vs untransformed cells” value is “selectively inhibited”. In the experiment on B-Raf 600E cells, the “potency on B-Raf 600E cells” value was “not potent”.
Take `Nc1ccn([C@@H]2O[C@H](CO)[C@@H](O)C2(F)F)c(=O)n1` [Gemcitabine, gemcitabine]: the “p21^waf expression” value with p21^waf is “downregulated; also recorded: down-regulated”. Moreover, in experiment [1] (Gemcitabine 40 mg/kg IP Q3Dx4), the “% TGI” value was 20%; the “#PR/CR” value is 0/9 and 0/0; the “FINAL TUMOR VOLUME (DAY 29) MEAN ± SEM” value is recorded as 1683±426 mm^3; the “activity according to NCI Standards” value is “inactive”. For the same compound, in experiment [1] (Gemcitabine 80 mg/kg IP Q3Dx4), the “% TGI” value was 9%; the “#PR/CR” value was 0/9 and 0/0; the “FINAL TUMOR VOLUME (DAY 29) MEAN ± SEM” value came out at 1890±237 mm^3; the “activity according to NCI Standards” value was “inactive”. Further, the “calculated TGI values (discussion)” value in experiment [1] was “less than 58%”.
